Experimental data as given in US20130029991A1, “New Phenylsulfamoyl Benzamide Derivatives as Bradykinin Antagonists” (priority 2006, published 2013).
Structures can show the parent of a compound that is named as a salt.

Experiments:
[1] = target: T1, recombinant human B1 receptors (Homo sapiens, UniProt P46663); assay: Functional assay: antagonist potency by cytosolic calcium measurement (fluo-4, plate reader fluorimeter) in CHO-B1 cells; type: cell-based; conditions: CHO-B1 cells, inhibition of LysDABK (EC80)-evoked [Ca2+]i elevation; read-out: B1 func.
T1 construct: host or cells: CHO (CHO-B1)
T1 sequence (P46663 1-353): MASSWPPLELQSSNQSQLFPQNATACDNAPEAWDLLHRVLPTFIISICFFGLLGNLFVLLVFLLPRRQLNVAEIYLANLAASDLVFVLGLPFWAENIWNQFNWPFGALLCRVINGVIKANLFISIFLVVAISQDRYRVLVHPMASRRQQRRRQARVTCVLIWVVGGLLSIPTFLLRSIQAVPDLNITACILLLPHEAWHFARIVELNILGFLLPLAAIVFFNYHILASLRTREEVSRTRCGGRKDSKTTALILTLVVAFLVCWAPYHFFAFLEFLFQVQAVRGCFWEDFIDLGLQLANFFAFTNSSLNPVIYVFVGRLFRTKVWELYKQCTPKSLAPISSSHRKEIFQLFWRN
Description: Assessment of Antagonist Potency at B1 and B2 Receptors In Vitro by Measurement of Cytosolic Calcium Ion Concentration with a Plate Reader Fluorimeter in Cells Expressing Recombinant Human B1 or B2 Receptors
Chinese hamster ovary (CHO) cells stably expressing recombinant human B1 (CHO-B1, Euroscreen) or B2 (CHO-B2, Perkin-Elmer) receptors were cultured in Dulbecco's Modified Eagle's Medium (DMEM) containing 10% Fetal Calf Serum (FCS), 100 U/ml penicillin, 0.1 mg/ml streptomycin, 0.25 μg/ml amphotericin B, 1% Minimum Essential Medium Eagle (MEM), non essential amino acid solution, […], 1% pyruvate (for the B2 cell line). Cells were kept at 37° C. in a humidified incubator in an atmosphere of 5% CO2/95% air and were passaged 1:4 three times a week. Cells were plated at 1.5-2.5×10^4 cell/well on standard 96-well microplates, measurements of cytosolic calcium ion concentration ([Ca^2+]i) were carried out 1-2 days after cell plating.
Measurements of [Ca^2+]i were carried out on CHO-B1 and CHO-B2 cells stably expressing human B1 and B2 receptors, respectively. Cells were grown in standard 96-well microplates and before the measurement were loaded with a fluorescent Ca^2+-sensitive dye, fluo-4/AM (2 μM): after removing the culture medium the dye was added to the cells (dissolved in assay buffer: 145 mM NaCl, 5 mM KCl, 2 mM MgCl2, 2 mM CaCl2, 10 mM HEPES, 20 mM D-glucose, 2 mM probenecid, 100 μl/well) and cells were incubated at 37° C. in a humidified incubator in an atmosphere of 5% CO2/95% air for 40-120 min. To stop dye loading cells were washed twice with assay buffer. After washing, various concentrations of the test compounds (diluted in extracellular medium from a DMSO stock solution, final DMSO concentration was <0.1%) or buffer were added to each well depending on the experimental setup. After incubation at 37° C. for 20-25 min. baseline and agonist-evoked changes of [Ca^2+]i were measured column by column with a plate reader fluorimeter (Fluoroskan Ascent, Labsystems). Excitation and detection of emission was carried out from the bottom of the plate. Filters used for Fluo-4: excitation filter—485 nm, emission filter—538 nm. The whole measurement process was performed at 37° C. and was controlled by custom software Inhibitory potency of the test compounds was assessed by measuring the reduction in the agonist-evoked [Ca^2+]i-elevation in the presence of different concentrations of the compounds. The agonists were LysDABK for CHO-B1, and bradykinin for CHO-B2 cells. Agonists were applied at an EC80 concentration, the EC80-values were derived from daily determined dose-response curves. Fluorescence data were expressed as ΔF/F (fluorescence change normalized to baseline). All treatments on a single plate were measured in multiple wells. Data from all wells with the same treatment were averaged and the average values were used for analysis. Inhibitory potency of a compound at a single concentration point was expressed as percent inhibition of the control agonist response. Sigmoidal concentration-inhibition curves were fitted to the data (derived from at least three independent experiments) and IC50-values were determined as the concentration that produces half of the maximal inhibition caused by the compound.

[2] = target: T2, human recombinant bradykinin B1 receptor (Homo sapiens, UniProt P46663); assay: Human recombinant bradykinin B1 receptor binding; conditions: CHO cell membranes, [3H]-[Des-Arg10] Kallidin radioligand; read-out: B1 binding
T2 construct: host or cells: CHO cells
T2 sequence (P46663 1-353): T1 sequence (P46663 1-353)
Description: 1. Human Recombinant Bradykinin B1 Receptor Binding
Binding assays were carried out on human recombinant bradykinin) receptors (expressed in CHO cells) according to the Euroscreen Technical Data Sheet (Cat.No.:ES-091). 20 μg protein/tube was incubated with [3,4-prolyl-3,4-^3H(N)]-[Des-Arg^10] Kallidin as radioligand. Non specific binding was determined in the presence of 10 μM Lys-des-Arg^9-Bradykinin. The final incubation volume was 250 μl. Samples were incubated for 15 min. at 25° C. then were rapidly vacuum filtered through GF/B filters presoaked for at least 1 h in 0.5% PEI. Radioactivity was determined by liquid scintillation spectroscopy.

IC50 [1] [nM] | Ki [2] [nM] | SMILES
< 20 | < 20 | O=C(CNC(=O)c1ccc(S(=O)(=O)Nc2ccccc2C(=O)c2ccccc2)cc1)NCC1CCNCC1 [Example 18, 4-(2-Benzoyl-phenylsulfamoyl)-N-{[(piperidin-4-ylmethyl)-carbamoyl]-methyl}-benzamide hydrochloride]
< 20 | < 20 | O=C(CNC(=O)c1ccc(S(=O)(=O)Nc2ccccc2Oc2ccc(Br)cc2)cc1)NCC1CCNCC1 [Example 3, 4-[2-(4-Bromo-phenoxy)-phenylsulfamoyl]-N-{[(piperidin-4-ylmethyl)-carbamoyl]-methyl}-benzamide trifluoroacetate]
< 20 | < 20 | N=C(N)N1CCC(CNC(=O)CNC(=O)c2ccc(S(=O)(=O)Nc3ccccc3Oc3ccc(Cl)cc3Cl)cc2)CC1 [Example 14, N-{[(1-Carbamimidoyl-piperidin-4-ylmethyl)-carbamoyl]-methyl}-4-[2-(2,4-dichloro-phenoxy)-phenylsulfamoyl]-benzamide hydrochloride]
< 20 | < 20 | C[C@H](NC(=O)c1ccc(S(=O)(=O)Nc2ccccc2Oc2ccc(Cl)cc2Cl)cc1)C(=O)NCC1CCNCC1 [Example 8, 4-[2-(2,4-Dichloro-phenoxy)-phenylsulfamoyl]-N—{(S)-1-[(piperidin-4-ylmethyl)-carbamoyl]-ethyl}-benzamide hydrochloride]
< 20 | < 20 | O=C(CNC(=O)c1ccc(S(=O)(=O)Nc2ccccc2Oc2ccccc2)cc1)NCC(=O)N1CCNCC1 [Example 16, N-[(2-Oxo-2-piperazin-1-yl-ethylcarbamoyl)-methyl]-4-(2-phenoxy-phenylsulfamoyl)-benzamide hydrochloride]
< 20 | < 20 | O=C(CNC(=O)c1ccc(S(=O)(=O)Nc2cc(F)ccc2Oc2ccc(F)cc2)cc1)NCC1CCNCC1 [Example 15, 4-[5-Fluoro-2-(4-fluoro-phenoxy)-phenylsulfamoyl]-N-{[(piperidin-4-ylmethyl)-carbamoyl]-methyl}-benzamide hydrochloride]
< 20 | < 20 | O=C(CNC(=O)c1ccc(S(=O)(=O)Nc2ccccc2Oc2ccc(Cl)cc2Cl)cc1)NCCCC1CCNCC1 [Example 61, 4-[2-(2,4-Dichloro-phenoxy)-phenylsulfamoyl]-N-[(3-piperidin-4-yl-propylcarbamoyl)-methyl]-benzamide hydrochloride]
< 20 | < 20 | O=C(CNC(=O)c1ccc(S(=O)(=O)Nc2cc(F)ccc2Oc2ccc(F)cc2)cc1)NCCC1CCNCC1 [Example 13, 4-[5-Fluoro-2-(4-fluoro-phenoxy)-phenylsulfamoyl]-N-[(2-piperidin-4-yl-ethylcarbamoyl)-methyl]-benzamide hydrochloride]
< 20 | < 20 | CC1CCCCN1CCCNC(=O)CNC(=O)c1ccc(S(=O)(=O)Nc2ccccc2Oc2ccccc2)cc1 (stereo not shown) [Example 56, N-{[3-(2-Methyl-piperidin-1-yl)-propylcarbamoyl]-methyl}-4-(2-phenoxy-phenylsulfamoyl)-benzamide]
< 20 | < 20 | O=C(CNC(=O)c1ccc(S(=O)(=O)Nc2ccccc2Oc2ccc(Cl)cc2Cl)cc1)NCCCn1ccnc1 [Example 29, 4-[2-(2,4-Dichloro-phenoxy)-phenylsulfamoyl]-N-[(3-imidazol-1-yl-propylcarbamoyl)-methyl]-benzamide]
< 20 | < 20 | O=C(CNC(=O)c1ccc(S(=O)(=O)Nc2ccccc2Oc2ccc(Br)cc2Cl)cc1)NCC1CCNCC1 [Example 37, 4-[2-(4-Bromo-2-chloro-phenoxy)-phenylsulfamoyl]-N-{[(piperidin-4-ylmethyl)-carbamoyl]-methyl}-benzamide hydrochloride]
< 20 | < 20 | O=C(CNC(=O)c1ccc(S(=O)(=O)Nc2ccccc2Oc2ccccc2)cc1)N[C@H]1CC[C@H](CCN2CCCC2)CC1 [Example 50, trans-4-(2-Phenoxy-phenylsulfamoyl)-N-{[4-(2-pyrrolidin-1-yl-ethyl)-cyclohexyl-carbamoyl]-methyl}-benzamide]
< 20 | < 20 | O=C(CNC(=O)c1ccc(S(=O)(=O)Nc2cc(F)ccc2Oc2ccccc2)cc1)NCC1CCNCC1 [Example 7, 4-(5-Fluoro-2-phenoxy-phenylsulfamoyl)-N-{[(piperidin-4-ylmethyl)-carbamoyl]-methyl}-benzamide hydrochloride]
< 20 | < 20 | CN(C)CCCNC(=O)CNC(=O)c1ccc(S(=O)(=O)Nc2ccccc2Oc2ccc(Cl)cc2Cl)cc1 [Example 25, 4-[2-(2,4-Dichloro-phenoxy)-phenylsulfamoyl]-N-[(3-dimethylamino-propylcarbamoyl)-methyl]-benzamide]
< 20 | < 20 | O=C(CNC(=O)c1ccc(S(=O)(=O)Nc2ccccc2Oc2ccccc2)cc1)NCCC1CCNCC1 [Example 10, 4-(2-Phenoxy-phenylsulfamoyl)-N-[(2-piperidin-4-yl-ethylcarbamoyl)-methyl]-benzamide hydrochloride]
< 20 | < 20 | O=C(CNC(=O)c1ccc(S(=O)(=O)Nc2ccccc2Oc2ccc(F)cc2)cc1)NCC1CCNCC1 [Example 12, 4-[2-(4-Fluoro-phenoxy)-phenylsulfamoyl]-N-{[(piperidin-4-ylmethyl)-carbamoyl]-methyl}-benzamide hydrochloride]
< 20 | < 20 | O=C(CNC(=O)c1ccc(S(=O)(=O)Nc2ccccc2Oc2ccc(Cl)cc2Cl)cc1)NCCN1CCCCC1 [Example 23, 4-[2-(2,4-Dichloro-phenoxy)-phenylsulfamoyl]-N-[(2-piperidin-1-yl-ethylcarbamoyl)-methyl]-benzamide]
< 20 | < 20 | O=C(CNC(=O)c1ccc(S(=O)(=O)Nc2ccccc2Oc2ccccc2)cc1)Nc1ccc(N2CCC(N3CCCCC3)CC2)cc1 [Example 49, N-[(4-[1,4′]Bipiperidinyl-1′-yl-phenylcarbamoyl)-methyl]-4-(2-phenoxy-phenylsulfamoyl)-benzamide]
20 to 100 | 20 to 100 | COc1ccc(NS(=O)(=O)c2ccc(C(=O)NCC(=O)NCC3CCNCC3)cc2)c(Oc2ccc(Cl)cc2Cl)c1 [Example 11, 4-[2-(2,4-Dichloro-phenoxy)-4-methoxy-phenylsulfamoyl]-N-{[(piperidin-4-ylmethyl)-carbamoyl]-methyl}-benzamide hydrochloride]
< 20 | < 20 | O=C(CNC(=O)c1ccc(S(=O)(=O)Nc2ccccc2Oc2ccc(Cl)cc2Cl)cc1)NCCN1CCOCC1 [Example 30, 4-[2-(2,4-Dichloro-phenoxy)-phenylsulfamoyl]-N-[(2-morpholin-4-yl-ethylcarbamoyl)-methyl]-benzamide]
